{
  "source": "paper PMC3901259",
  "about": "“Characterisation of the Metabolites of 1,8-Cineole Transferred into Human Milk: Concentrations and Ratio of Enantiomers” (Metabolites, 2013)",
  "key": {"[1]": {"experiment": "Determination of the ratios of enantiomers of chiral metabolites in human milk on chiral GC capillaries", "assay_type": "in vivo", "details": "human milk samples B-1, B-2b and B-2c; excluded from Table 3", "from_the_text": "The separation of the chiral metabolites of 1,8-cineole was successfully achieved using different β- or γ-cyclodextrin-based stationary phases (Rt-bDEXsa, Rt-bDEXse, Rt-bDEXsm and Rt-yDEXsa) for gas chromatographic analysis. Table S1, in the supplementary material, lists the usable separation phases and the respective retention indices (determined according to van den Dool and Kratz) for each pair of enantiomers. It was therefore decided to use the following capillaries for the analysis of the human milk samples: Rt-bDEXsm for separation of 2,3-dehydro-, α2,3-epoxy-, 2-oxo-, 3-oxo- and 9-hydroxy-1,8-cineole, and Rt-yDEXsa for separation of α2-hydroxy-, α3-hydroxy- and β2-hydroxy-1,8-cineole, under the GC conditions described in the experimental section.\nFor GC-MS analyses, an Agilent MSD quadrupole system (GC 7890A with MSD 5975C, Agilent Technologies, Waldbronn, Germany) coupled with a CIS 4C (cooled injection system) and an MPS 2 auto-sampler (Gerstel GmbH & Co. KG, Duisburg, Germany) were used. Data collection and analysis were performed with the MSD ChemStation E.02.00.493 (Agilent Technologies, Inc.) software. Quantification experiments were carried out on DB-FFAP and DB-5 capillaries (30 m length, 0.25 mm inner diameter, 0.25 µm film thickness, Agilent J&W GC Columns, USA), and for monitoring of the ratio of enantiomers the chiral capillaries Rt-bDEXsa, Rt-bDEXse, Rt-bDEXsm and Rt-yDEXsa (30 m length, 0.32 mm inner diameter, 0.25 µm film thickness, Restek GmbH, Bad Homburg, Germany) were utilised. Pre-columns of uncoated, deactivated fused silica (0.53 mm inner diameter, 0.5 to 3.5 m length) were used to ensure that no potentially present low-volatile residues could contaminate the analytical capillaries. The temperature programme of the column oven was as follows: 40 °C for 2 min, 4 °C/min up to 170 °C, 40 °C/min up to 230 °C (Rt-DEX capillaries), 240 °C (DB-FFAP) and 250 °C (DB-5), respectively, and hold time at end temperature of 5 to 10 min. As carrier gas, helium was used at a flow rate of 1.3 mL/min (velocity 41.1 cm/s). Injection of 1 or 2 µL was performed by the auto-sampler.\nFor the separation of the pairs of enantiomers of the chiral metabolites of 1,8-cineole, four different capillaries (Rt-bDEXsa, Rt-bDEXse, Rt-bDEXsm, and Rt-yDEXsa) were evaluated for optimisation of the peak-to-peak resolution of the enantiomers by injecting a mixture of all the metabolites in a dichloromethane solution and by varying the heating rate. Besides the separation of each pair of enantiomers from each other, it was also important to confirm that no other metabolite coeluted with any one of the enantiomers, because the milk samples would most probably contain all metabolites. Moreover, the separation conditions for the mixture of reference substances were also tested on some human milk sample extracts and modified accordingly, where necessary, to avoid coelution with interfering matrix compounds.\nFor calculation of the ratio of enantiomers (that is, the relative abundance of each enantiomer to the not separated mixture of enantiomers), the peak area of each enantiomer was divided by the sum of the peak areas of both enantiomers and multiplied by 100. With the known concentrations of the chiral metabolites in each milk sample, the absolute concentration of each single enantiomer was also calculated by multiplying the concentration with the respective percentage."}, "[2]": {"parameters": "method as in doi:10.1002/cplu.201200253", "details": "urine after 100 mg 1,8-cineole; cited from earlier work"}, "[3]": {"experiment": "Quantification of 1,8-cineole metabolites in human milk (SAFE, GC-MS, internal standard and matrix calibration) after oral intake of 100 mg 1,8-cineole", "assay_type": "in vivo", "details": "for Absolute concentration in human milk: single determination", "from_the_text": "Human milk samples were provided voluntarily by breastfeeding mothers after intake of the non-prescription pharmaceutical Soledum® (Klosterfrau Healthcare Group, Cologne, Germany). Before the beginning of the study, the participants were informed verbally, as well as in written form, about the study procedure and purpose and they were told that withdrawing from the study was possible at any time without giving any reason. All volunteers gave written consent to the analysis of their milk samples and anonymous publication of the resulting data. The Ethical Committee of the Medical Faculty, University Erlangen-Nuremberg, approved the experimental procedures. Each participant was handed a copy of the Soldeum® package instructions and was advised to read it before capsule intake. They were also advised to withdraw from the study if any negative reactions such as medication allergies or interactions with other drugs they were taking were to be expected. Additionally, the volunteers were informed verbally about potential effects of the pharmaceutical preparation on breastfeeding, i.e. the risk of an altered milk flavour and rejection of the milk by the nursling. Accordingly, if this would happen, the mothers were recommended to feed their babies with stored human milk or formula milk products.\nThe milk donors were between the ages of 29 and 40 years (mean 34 years). During their participation in the study, their breast milk production had to be normal and in excess of their infants' needs, with no breast infections and no overall medical complaints present. Five participants were primiparous, three were multiparous and the breast milk samples were from 19 weeks to 19 months postpartum. For sampling, either electrical or mechanical breast pumps or manual expression techniques were applied, resulting in sample volumes between 10 and 100 mL. The samples were immediately subjected to sample preparation after a maximum storage time of five hours at 7 °C or were stored in a freezer at −20 °C for up to five days.\nThe participating volunteers were asked to ingest one Soledum® capsule, containing 100 mg 1,8-cineole, and to wait until they themselves or another person began to notice the eucalyptus-like odour on their breath. […] The donors were instructed to keep notes on the dates of capsule intake, first eucalyptus-like odour on their breath and exact sampling time. Unfortunately it was difficult for some mothers to detect the smell on their breath so they expressed the samples after some time without having noticed the smell, or reported having been unsure about the smell. […] Some of the donors repeated the whole experiment and some expressed more than one sample after the capsule intake, resulting in 14 samples in total, from 8 different mothers.\nExtracts containing the volatile fraction of the human milk samples were prepared by Solvent Assisted Flavour Evaporation (SAFE) after addition of deuterated 1,8-cineole as internal standard (solution in dichloromethane), followed by 10 min of stirring, then another addition of dichloromethane (50% v/v), and 30 min of stirring. The resulting stable phase was distilled in the SAFE-apparatus at 50 °C and approximately 1x10^−4 mbar. The volatile fraction of the samples was frozen with liquid nitrogen. After thawing, it consisted of two phases, formed by the dichloromethane and by the water out of the milk. The water phase was extracted three times with dichloromethane, and the solvent phases were combined and dried over anhydrous Na2SO4. Finally the sample extracts were concentrated by microdistillation according to Bemelmans at 50 °C to a total volume of 50 to 200 μL.\nFor GC-MS analyses, an Agilent MSD quadrupole system (GC 7890A with MSD 5975C, Agilent Technologies, Waldbronn, Germany) coupled with a CIS 4C (cooled injection system) and an MPS 2 auto-sampler (Gerstel GmbH & Co. KG, Duisburg, Germany) were used. […]"}, "[4]": {"test_system": "rats", "parameters": "method as in PMID 6068552", "details": "cited from earlier work"}, "[5]": {"parameters": "method as in PMID 22405404", "details": "cited from earlier work"}, "[6]": {"details": "sample F (no odour), two capsules"}},
  "note": "Like-named read-outs stand apart in the source and are kept apart here.",
  "data": [
    {"smiles": "CC12CCC(CC1=O)C(C)(C)O2", "note": "(stereo not shown) [2-oxo-1,8-cineole]", "values": [
      {"measurement": "Percentage E2 in single samples (outliers)", "setting": "[1]", "result": 100, "unit": "%"},
      {"measurement": "Presence in human urine", "setting": "[2]", "result": "could not be found"},
      {"measurement": "Estimated maximum level in human milk (concentration calculated with the last calibration point, in parentheses)", "setting": "[3]; sample A-1a (no odour)", "result": "< 1.57", "unit": "µg/kg"},
      {"measurement": "Absolute concentration in human milk", "setting": "[3]; sample A-1a (no odour), oral 100 mg 1,8-cineole, values given with (<x) lie beyond calibration range, approximation", "result": 0.13, "unit": "µg/kg"},
      {"measurement": "Estimated maximum level in human milk (concentration calculated with the last calibration point, in parentheses)", "setting": "[3]; sample A-1b (odour yes)", "result": "< 1.31", "unit": "µg/kg"},
      {"measurement": "Absolute concentration in human milk", "setting": "[3]; sample A-1b (odour yes), oral 100 mg 1,8-cineole, values given with (<x) are approximations", "result": 0.53, "unit": "µg/kg"},
      {"measurement": "Estimated maximum level in human milk (concentration calculated with the last calibration point, in parentheses)", "setting": "[3]; sample B-1 (odour yes)", "result": "< 1.89", "unit": "µg/kg"},
      {"measurement": "Absolute concentration in human milk", "setting": "[3]; sample B-1 (odour yes), oral 100 mg 1,8-cineole, values given with (<x) are approximations", "result": 0.91, "unit": "µg/kg"},
      {"measurement": "Estimated maximum level in human milk (concentration calculated with the last calibration point, in parentheses)", "setting": "[3]; sample B-2b (odour yes)", "result": "< 2.37", "unit": "µg/kg"},
      {"measurement": "Absolute concentration in human milk", "setting": "[3]; sample B-2b (odour yes), oral 100 mg 1,8-cineole, values given with (<x) are approximations", "result": 0.34, "unit": "µg/kg"},
      {"measurement": "Absolute concentration in human milk", "setting": "[3]; sample B-2c (no odour), oral 100 mg 1,8-cineole", "result": 0.07, "unit": "µg/kg"},
      {"measurement": "Estimated maximum level in human milk (concentration calculated with the last calibration point, in parentheses)", "setting": "[3]; sample D-2 (odour yes)", "result": "< 2.20", "unit": "µg/kg"},
      {"measurement": "Absolute concentration in human milk", "setting": "[3]; sample D-2 (odour yes), oral 100 mg 1,8-cineole, values given with (<x) are approximations", "result": 0.85, "unit": "µg/kg"},
      {"measurement": "Estimated maximum level in human milk (concentration calculated with the last calibration point, in parentheses)", "setting": "[3]; sample E-2 (odour yes)", "result": "< 2.03", "unit": "µg/kg"},
      {"measurement": "Absolute concentration in human milk", "setting": "[3]; sample E-2 (odour yes), oral 100 mg 1,8-cineole, values given with (<x) are approximations", "result": 1.71, "unit": "µg/kg"},
      {"measurement": "Absolute concentration in human milk", "setting": "[3]; sample F (no odour), parent ingested two capsules, values given with (<x) are approximations", "result": 2.71, "unit": "µg/kg"},
      {"measurement": "Estimated maximum level in human milk (concentration calculated with the last calibration point, in parentheses)", "setting": "[3]; [6]", "result": "< 3.00", "unit": "µg/kg"},
      {"measurement": "Estimated maximum level in human milk (concentration calculated with the last calibration point, in parentheses)", "setting": "[3]; sample H (odour yes)", "result": "< 2.24", "unit": "µg/kg"},
      {"measurement": "Absolute concentration in human milk", "setting": "[3]; sample H (odour yes), oral 100 mg 1,8-cineole, values given with (<x) are approximations", "result": 0.86, "unit": "µg/kg"}
    ]},
    {"smiles": "CC12CCC(CC1)C(C)(C)O2", "note": "[1,8-cineole, 1,8-Cineole]", "values": [
      {"measurement": "acute oral LD50", "setting": "[4]", "result": 2.5, "unit": "g/kg bodyweight"},
      {"measurement": "Concentration of 1,8-cineole in human milk", "setting": "[5]; sample A-1a (no odour), beyond calibration range, approximation", "result": 2.43, "unit": "µg/kg"},
      {"measurement": "1,8-cineole: concentration calculated with the last calibration point (limit in parentheses)", "setting": "[5]; sample A-1a (no odour)", "result": "< 13.65", "unit": "µg/kg"},
      {"measurement": "Concentration of 1,8-cineole in human milk", "setting": "[5]; sample A-1b (odour yes)", "result": 134.72, "unit": "µg/kg"},
      {"measurement": "Concentration of 1,8-cineole in human milk", "setting": "[5]; sample B-1 (odour yes)", "result": 399.39, "unit": "µg/kg"},
      {"measurement": "Concentration of 1,8-cineole in human milk", "setting": "[5]; sample B-2a (no odour)", "result": 0.98, "unit": "µg/kg"},
      {"measurement": "Concentration of 1,8-cineole in human milk", "setting": "[5]; sample B-2b (odour yes)", "result": 70.97, "unit": "µg/kg"},
      {"measurement": "Concentration of 1,8-cineole in human milk", "setting": "[5]; sample B-2c (no odour)", "result": 14.82, "unit": "µg/kg"},
      {"measurement": "Concentration of 1,8-cineole in human milk", "setting": "[5]; sample C (no odour)", "result": 13.56, "unit": "µg/kg"},
      {"measurement": "Concentration of 1,8-cineole in human milk", "setting": "[5]; sample D-1 (no odour), beyond calibration range, approximation", "result": 5.75, "unit": "µg/kg"},
      {"measurement": "1,8-cineole: concentration calculated with the last calibration point (limit in parentheses)", "setting": "[5]; sample D-1 (no odour)", "result": "< 10.59", "unit": "µg/kg"},
      {"measurement": "Concentration of 1,8-cineole in human milk", "setting": "[5]; sample D-2 (odour yes)", "result": 226.09, "unit": "µg/kg"},
      {"measurement": "Concentration of 1,8-cineole in human milk", "setting": "[5]; sample E-1 (no odour), beyond calibration range, approximation", "result": 3.19, "unit": "µg/kg"},
      {"measurement": "1,8-cineole: concentration calculated with the last calibration point (limit in parentheses)", "setting": "[5]; sample E-1 (no odour)", "result": "< 13.18", "unit": "µg/kg"},
      {"measurement": "Concentration of 1,8-cineole in human milk", "setting": "[5]; sample E-2 (odour yes)", "result": 504.93, "unit": "µg/kg"},
      {"measurement": "Concentration of 1,8-cineole in human milk", "setting": "[5]; sample F (no odour), two capsules, beyond calibration range, approximation", "result": 20.23, "unit": "µg/kg"},
      {"measurement": "1,8-cineole: concentration calculated with the last calibration point (limit in parentheses)", "setting": "[5]; [6]", "result": "< 26.14", "unit": "µg/kg"},
      {"measurement": "Concentration of 1,8-cineole in human milk", "setting": "[5]; sample G (odour yes)", "result": 194.46, "unit": "µg/kg"}
    ]}
  ]
}
